Measured values taken from ChEMBL document CHEMBL1125026, “Synthesis and estrogen receptor binding of novel 11 beta-substituted estra-1,3,5(10)-triene-3,17 beta-diols” (J Med Chem, 1990).

Target: Estrogen receptor (Rattus norvegicus) (UniProt P06211+Q62986)
Assay: Relative binding affinity for rat uterine estrogen receptor at 25 degree C
Format: protein assay

- RBA: 60
Structure (SMILES): C[C@]12CC[C@@H]3c4ccc(O)cc4CC[C@H]3[C@@H]1C[C@@H](F)[C@@H]2O
